Active and inactive are the calls of the source. No cut-off for these calls is given here.
Experiments:
[1] = biological target: GTPase KRas (Homo sapiens) (UniProt P01116); assay: Inhibition of wild type KRAS (unknown origin) downstream signalling in human HCT-116 cells assessed as suppression of Raf phosphorylation incubated 24 hrs by pull down based Western blotting analysis; type: cell-based; conditions: dose <= 8.0 µM, DDE = dose-dependent effect
[2] = Toxicity in BALB/c mouse allografted with mouse CT26 cells assessed as effect on liver morphology at 40 to 60 mg/kg, ip administered once a day for 10 days by H and E staining based microscopic analysis; type: organism-based; conditions: in vivo, 240 h, dose 40-60 mg/kg, time 10 day
[3] = Toxicity in BALB/c mouse allografted with mouse CT26 cells assessed as PCT level at 40 to 60 mg/kg, ip administered once a day for 10 days (reference value: 0.226 to 6.4 %); type: organism-based; conditions: in vivo, 240 h, dose 40-60 mg/kg, time 10 day
CT26 [4] = assay: Antitumor activity against mouse CT26 cells allografted in BALB/c mouse assessed as tumor volume at 60 mg/kg, ip administered once a day for 10 days; type: functional; conditions: time 10 day
[5] = Toxicity in BALB/c mouse allografted with mouse CT26 cells assessed as MCV level at 40 to 60 mg/kg, ip administered once a day for 10 days (reference value: 16 to 47 fL); type: organism-based; conditions: in vivo, 240 h, dose 40-60 mg/kg, time 10 day
HCT-116 = assay: Antiproliferative activity against human HCT-116 cells harboring KRAS G13D mutant assessed as inhibition of cell viability after 24 hrs by MTT assay; type: functional, cell-based; conditions: HCT-116, 24 h
[6] = test system: GTPase KRas (Homo sapiens), P01116 [G12D]; assay: Binding affinity to human his-tagged KRAS G12D mutant assessed as change in enthalpy by isothermal titration calorimetry
CT26 [7] = assay: Induction of apoptosis in mouse CT26 cells assessed as necrotic cells at 2 uM measured after 24 hrs by PI/Annexin V staining based flow cytometric analysis (reference value: 0.789%); type: functional
SW1990 [8] = assay: Induction of apoptosis in human SW1990 cells assessed as necrotic cells at 8 uM measured after 24 hrs by PI/Annexin V staining based flow cytometric analysis (reference value: 2.69%); type: functional
CT26 [9] = assay: Antiproliferative activity against mouse CT26 cells harboring KRAS G12D mutant assessed as inhibition of cell viability after 24 hrs by MTT assay; type: functional, cell-based; conditions: CT26, 24 h
CT26 [10] = assay: Induction of apoptosis in mouse CT26 cells assessed as late apoptotic cells at 8 uM measured after 24 hrs by PI/Annexin V staining based flow cytometric analysis (reference value: 3.21%); type: functional
CT26 [11] = assay: Induction of apoptosis in mouse CT26 cells assessed as viable cells at 8 uM measured after 24 hrs by PI/Annexin V staining based flow cytometric analysis (reference value: 84.8%); type: functional; conditions: read-out: Activity
NCI-H358 = assay: Antiproliferative activity against human NCI-H358 cells harboring KRAS G12C mutant assessed as inhibition of cell viability after 24 hrs by MTT assay; type: functional, cell-based; conditions: NCI-H358, 24 h
[12] = Toxicity in BALB/c mouse allografted with mouse CT26 cells assessed as MCHC level at 40 to 60 mg/kg, ip administered once a day for 10 days (reference value: 338 to 361 g/L); type: organism-based; conditions: in vivo, 240 h, dose 40-60 mg/kg, time 10 day
[13] = Toxicity in BALB/c mouse allografted with mouse CT26 cells assessed as lymphocyte level at 40 to 60 mg/kg, ip administered once a day for 10 days (reference value: 5.6 to 35.2 %); type: organism-based; conditions: in vivo, 240 h, dose 40-60 mg/kg, time 10 day
CT26 [14] = assay: Antitumor activity against mouse CT26 cells allografted in BALB/c mouse assessed as inhibition of tumor growth at 40 mg/kg, ip administered once a day for 10 days; type: functional; conditions: CT26, 240 h, time 10 day, read-out: TGI
CT26 [15] = assay: In vivo inhibition of KRAS G12D mutant (unknown origin) mediated downstream signalling in mouse CT26 cells allografted in BALB/c mouse assessed as decrease in phosphorylation level of Raf in tumor tissue at 40 to 60 mg/kg, ip administered once a day for 10 days by Western blotting analysis; type: functional, organism-based; conditions: dose 40-60 mg/kg, time 10.0 day
SW1990 [16] = assay: Induction of apoptosis in human SW1990 cells assessed as viable cells at 4 uM measured after 24 hrs by PI/Annexin V staining based flow cytometric analysis (reference value: 82.9%); type: functional; conditions: read-out: Activity
CT26 [17] = assay: Inhibition of KRAS G12D mutant (unknown origin) downstream signalling in mouse CT26 cells assessed as suppression of ERK phosphorylation incubated for 24 hrs by pull down based Western blotting analysis; type: cell-based; conditions: dose <= 16.0 µM, DDE = dose-dependent effect
SW1990 [18] = assay: Induction of apoptosis in human SW1990 cells assessed as late apoptotic cells at 4 uM measured after 24 hrs by PI/Annexin V staining based flow cytometric analysis (reference value: 3.75%); type: functional
CT26 [19] = assay: Induction of apoptosis in mouse CT26 cells assessed as early apoptotic cells at 4 uM measured after 24 hrs by PI/Annexin V staining based flow cytometric analysis (reference value: 11.2%); type: functional
SW1990 [20] = assay: Induction of apoptosis in human SW1990 cells assessed as viable cells at 2 uM measured after 24 hrs by PI/Annexin V staining based flow cytometric analysis (reference value: 82.9%); type: functional; conditions: read-out: Activity
SW1990 [21] = assay: Induction of apoptosis in human SW1990 cells assessed as early apoptotic cells at 8 uM measured after 24 hrs by PI/Annexin V staining based flow cytometric analysis (reference value: 10.7%); type: functional
CT26 [22] = assay: Inhibition of GTP bound KRAS in mouse CT26 cells assessed as down regulation of KRAS-GTP protein level incubated for 12 hrs by Pull-Down based Western blotting analysis; type: functional, cell-based; conditions: dose 10-20 µM, DDE = dose-dependent effect
SW1990 [23] = assay: Induction of apoptosis in human SW1990 cells assessed as late apoptotic cells at 8 uM measured after 24 hrs by PI/Annexin V staining based flow cytometric analysis (reference value: 3.75%); type: functional
[24] = Toxicity in BALB/c mouse allografted with mouse CT26 cells assessed as effect on kidney morphology at 40 to 60 mg/kg, ip administered once a day for 10 days by H and E staining based microscopic analysis; type: organism-based; conditions: in vivo, 240 h, dose 40-60 mg/kg, time 10 day
[25] = biological target: GTPase KRas (Homo sapiens) (UniProt P01116); assay: Inhibition of wild type KRAS (unknown origin) downstream signalling in human HCT-116 cells assessed as suppression of ERK phosphorylation incubated for 24 hrs by pull down based Western blotting analysis; type: cell-based; conditions: dose <= 8.0 µM, DDE = dose-dependent effect
SW1990 [26] = assay: Inhibition of GTP bound KRAS in human SW1990 cells assessed as down regulation of KRAS-GTP protein level incubated for 12 hrs by Pull-Down based Western blotting analysis; type: functional, cell-based; conditions: dose 10-20 µM, DDE = dose-dependent effect
[27] = test system: GTPase KRas (Homo sapiens), P01116 [G12D]; assay: Inhibition of KRAS G12D mutant downstream signalling in human SW1990 cells assessed as suppression of ERK phosphorylation incubated for 24 hrs by pull down based Western blotting analysis; type: cell-based; conditions: dose <= 16.0 µM, DDE = dose-dependent effect
CT26 [28] = assay: Induction of apoptosis in mouse CT26 cells assessed as necrotic cells at 4 uM measured after 24 hrs by PI/Annexin V staining based flow cytometric analysis (reference value: 0.789%); type: functional
SW1990 [29] = assay: Antiproliferative activity against human SW1990 cells harboring KRAS G12D mutant assessed as inhibition of cell viability after 24 hrs by MTT assay; type: functional, cell-based; conditions: SW1990, 24 h
CT26 [30] = assay: Inhibition of KRAS G12D mutant (unknown origin) downstream signalling in mouse CT26 cells assessed as suppression of Raf phosphorylation incubated for 24 hrs by pull down based Western blotting analysis; type: cell-based; conditions: dose <= 16.0 µM, DDE = dose-dependent effect

GTPase KRas (Homo sapiens), P01116 [G12D], sequence (P01116 whole entry G12D, looked up): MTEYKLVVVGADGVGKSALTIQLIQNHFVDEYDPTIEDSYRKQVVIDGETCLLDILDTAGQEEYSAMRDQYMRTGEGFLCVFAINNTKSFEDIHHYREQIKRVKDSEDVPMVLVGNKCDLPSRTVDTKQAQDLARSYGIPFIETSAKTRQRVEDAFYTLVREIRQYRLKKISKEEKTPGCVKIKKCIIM
GTPase KRas (Homo sapiens), sequence (P01116 whole entry, looked up): as the sequence (P01116 whole entry G12D, looked up) above, with D12G counted along it

COc1ccc(C(F)(F)F)cc1-c1cc2c(N3CC4CCC(C3)N4)ncnc2s1
Activity [1]: Dde
Activity [2]: Non-Toxic
Activity [3]: 0.372%
Activity (CT26 [4]): 11%
Activity [5]: 16.1 fL
IC50 (HCT-116): 4.7 µM
deltaH [6]: -26.6 kcal/mol
Activity (CT26 [7]): 1.39%
Activity (SW1990 [8]): 1.81%
IC50 (CT26 [9]): 2000 nM
Activity (CT26 [10]): 60.4%
viability at 8 µM (CT26 [11]): 8.57%
IC50 (NCI-H358): 4.5 µM
Activity [12]: 336 g/L
Activity [13]: 4.9%
inhibition in vivo at 40 mg/kg (CT26 [14]): 42%
Activity (CT26 [15]): Active
viability at 4 µM (SW1990 [16]): 47.9%
Activity (CT26 [17]): Dde
Activity (SW1990 [18]): 29.2%
Activity (CT26 [19]): 36.4%
viability at 2 µM (SW1990 [20]): 74.4%
Activity (SW1990 [21]): 37.1%
inhibition (CT26 [22]): Dde
Activity (SW1990 [23]): 56.9%
Activity [24]: Non-Toxic
Activity [25]: Dde
inhibition (SW1990 [26]): Dde
Activity [27]: Dde
Activity (CT26 [28]): 3.87%
IC50 (SW1990 [29]): 2100 nM
Activity (CT26 [30]): Dde

Reference: ChEMBL document CHEMBL5154793, “Discovery of Thieno[2,3-d]pyrimidine-based KRAS G12D inhibitors as potential anticancer agents via combinatorial virtual screening” (Eur J Med Chem, 2022)
